{"source": "ChEMBL document CHEMBL3102778", "about": "“Design of the influenza virus inhibitors targeting the PA endonuclease using 3D-QSAR modeling, side-chain hopping, and docking” (Bioorg Med Chem Lett, 2014)", "data": [{"experiment": "Inhibition of influenza A virus RNA-dependent RNA polymerase subunit PA endonuclease activity", "values": [{"smiles": "O=C(Nc1ccccc1)Nc1ccc2c(C(=O)c3ccccc3)c(O)n(O)c2c1", "pIC50": 4.54}, {"smiles": "CC(C)/C=C1\\N=C(CC(C)C)C(=O)N(O)C1=O", "pIC50": 5.26}, {"smiles": "CC(=O)c1c(O)n(O)c2cc(NC(=O)c3ccc4ccccc4c3)ccc12", "pIC50": 5.05}, {"smiles": "CC(C)CC1=N/C(=C\\c2ccc(F)cc2)C(=O)N(O)C1=O", "pIC50": 6.05}, {"smiles": "CCC(=O)c1c(O)n(O)c2cc(NC(=O)Nc3ccccc3Cl)ccc12", "pIC50": 4.3}, {"smiles": "OC(CN1CCCCC1)Cn1c2c(c3ccccc31)CCCC2", "note": "(stereo unspecified)", "pIC50": 4.44}, {"smiles": "O=C(O)/C(O)=C/C(=O)C1(Cc2ccc(Cl)cc2)CCN(Cc2ccc(Cl)cc2)CC1", "pIC50": 6.27}, {"smiles": "O=C(O)/C(O)=C/C(=O)C1(Cc2ccc(Cl)cc2)CCCN(Cc2ccccc2)C1", "note": "(stereo unspecified)", "pIC50": 5.96}, {"smiles": "CC(C)CC1=N/C(=C\\c2ccccc2)C(=O)N(O)C1=O", "pIC50": 5.32}, {"smiles": "COc1ccc(/C=C2\\N=C(CC(C)C)C(=O)N(O)C2=O)cc1", "pIC50": 6.1}, {"smiles": "COc1ccc(/C=C2\\N=C(Cc3ccccc3)C(=O)N(O)C2=O)cc1", "pIC50": 5.55}, {"smiles": "O=C1C(Cc2ccccc2)=N/C(=C\\c2ccc(F)cc2)C(=O)N1O", "pIC50": 5.46}, {"smiles": "O=C1C(Cc2ccc(F)cc2)=N/C(=C\\c2ccccc2)C(=O)N1O", "pIC50": 5.19}, {"smiles": "O=C(O)/C(O)=C/C(=O)C1(Cc2ccc(Cl)cc2)CCCN(S(=O)(=O)Cc2ccccc2)C1", "note": "(stereo unspecified)", "pIC50": 6.72}, {"smiles": "CCC(=O)c1c(O)n(O)c2cc(NC(=O)Nc3ccc(Cl)cc3)ccc12", "pIC50": 4.42}, {"smiles": "O=C(Nc1ccc2c(C(=O)c3ccccc3)c(O)n(O)c2c1)NC1CCCCC1", "pIC50": 4.3}, {"smiles": "O=C(Nc1ccc2c(c1)N(O)C(=O)/C2=C(\\O)c1ccccc1)c1ccc2ccccc2c1", "pIC50": 5.1}, {"smiles": "C/C(O)=C1/C(=O)N(O)c2cc(NC(=O)c3cccs3)ccc21", "pIC50": 4.4}, {"smiles": "C/C(O)=C1/C(=O)N(O)c2cc(NC(=O)/C=C/c3ccccc3Cl)ccc21", "pIC50": 4.59}, {"smiles": "O=C(Nc1ccc2c(c1)N(O)C(=O)/C2=C(\\O)c1ccccc1)c1cnc2ccccc2n1", "pIC50": 4.77}, {"smiles": "O=C(/C=C/c1ccccc1Cl)Nc1ccc2c(c1)N(O)C(=O)/C2=C(\\O)c1ccccc1", "pIC50": 5.02}, {"smiles": "Cc1nc(NCC(=O)O)sc1S(=O)(=O)Nc1ccc2c(c1)N(O)C(=O)/C2=C(\\O)c1ccccc1", "pIC50": 4.49}, {"smiles": "CC/C(O)=C1/C(=O)N(O)c2cc(NC(=O)Nc3ccccc3)ccc21", "pIC50": 4.4}, {"smiles": "CC/C(O)=C1/C(=O)N(O)c2cc(NC(=O)c3cnc4ccccc4n3)ccc21", "pIC50": 5}, {"smiles": "CC/C(O)=C1/C(=O)N(O)c2cc(NC(=O)/C=C/c3ccccc3Cl)ccc21", "pIC50": 5.1}, {"smiles": "O=C(Nc1ccc2c(c1)N(O)C(=O)/C2=C(\\O)c1ccccc1)c1ccccc1", "pIC50": 5}, {"smiles": "C/C(O)=C1/C(=O)N(O)c2cc(NC(=O)c3cnc4ccccc4n3)ccc21", "pIC50": 4.96}, {"smiles": "Cc1cc(C(=O)Nc2ccc3c(c2)N(O)C(=O)/C3=C(\\O)c2ccccc2)no1", "pIC50": 5.02}, {"smiles": "O=C(Nc1ccc2c(c1)N(O)C(=O)/C2=C(\\O)c1ccccc1)c1cccs1", "pIC50": 4.7}, {"smiles": "O=C(Nc1ccc2c(c1)N(O)C(=O)/C2=C(\\O)c1ccccc1)c1ccc(Cl)cc1Cl", "pIC50": 4.42}, {"smiles": "O=C1/C(=C(\\O)c2ccccc2)c2ccc(NS(=O)(=O)c3cccs3)cc2N1O", "pIC50": 4.32}, {"smiles": "O=C(Nc1ccc2c(c1)N(O)C(=O)/C2=C(\\O)c1ccccc1)C1CCCCC1", "pIC50": 4.75}, {"smiles": "CC/C(O)=C1/C(=O)N(O)c2cc(NC(=O)c3cccs3)ccc21", "pIC50": 4.46}, {"smiles": "CC/C(O)=C1/C(=O)N(O)c2cc(NC(=O)Nc3cccc(C(=O)O)c3)ccc21", "pIC50": 5}, {"smiles": "CC(=O)c1c(O)n(O)c2cc(NC(=O)Nc3cccc(C(=O)O)c3)ccc12", "pIC50": 4.85}, {"smiles": "CCC(=O)c1c(O)n(O)c2cc(NC(=O)c3ccc(Cl)cc3Cl)ccc12", "pIC50": 4.35}]}]}
